In PubChem BioAssay AID314 (DTP/NCI, 2004):
“And” between values parts separate entries of the source, which are not always exact repeats. Equal entries are not always repeated. Inconclusive results and toxic doses are left out. Starred links: 1 amine or outer side, 2 acyl side, 3 side chain; linkers in the order of their positions; H or OH if unused. Positions of bridges follow the written chain, without caps; N, C: chain ends. Non-standard residues stand in square brackets, D forms with d. Residues, ends and D or L forms follow the SMILES beside them. Chains are numbered I, II in the order given. Actinocin(9to1) = Cc1c2oc3c(C)ccc(C(=O)[*:1])c3nc-2c(C(=O)[*:2])c(N)c1=O; aThr = C[C@H](O)[C@H](N)C(=O)O; NMeV = CN[C@H](C(=O)O)C(C)C; Sar = CNCC(=O)O

Test system: DBA/2 mice, P1534 leukemia ip, survival T/C
Test: NCI In Vivo Anticancer Drug Screen. Data for tumor model P1534 Leukemia (intraperitoneal) in DBA/2 mice
Conditions: endpoint: mean survival time, schedule: Q01DX010 (ip), higher = longer survival
Procedure: The antitumor activity of compounds was measured in mice bearing transplantable tumors. Survival or tumor size were measured and the results are expressed as the measurement made in the treated group (T) divided by the measurement made in the vehicle treated control group (C). The tumor model used in this assay is P1534 Leukemia (intraperitoneal) in DBA/2 mice

[1] = dose: 125.0 mg/kg/injection, vehicle: saline
[2] = dose: 250.0 mg/kg/injection, vehicle: saline
[3] = dose: 12.5 mg/kg/injection, vehicle: saline
[4] = dose: 50.0 mg/kg/injection, vehicle: saline
[5] = dose: 100.0 mg/kg/injection, vehicle: saline
[6] = dose: 200.0 mg/kg/injection, vehicle: saline
[7] = dose: 2.5 mg/kg/injection, vehicle: saline
[8] = dose: 5.0 mg/kg/injection, vehicle: saline
[9] = dose: 20.0 mg/kg/injection, vehicle: saline
[10] = dose: 10.0 mg/kg/injection, vehicle: saline

SMILES: NC(=O)N(CCCl)N=O
- T/C (dose: 0.5 mg/kg/injection, vehicle: saline): 100 % of control
- T/C (dose: 1.0 mg/kg/injection, vehicle: saline): 100 % of control
- T/C (dose: 2.0 mg/kg/injection, vehicle: saline): 86 % of control

SMILES: O=c1[nH]c(=O)n(C2CC(O)C(CO)O2)cc1Br (stereo not drawn)
- T/C (dose: 62.5 mg/kg/injection, vehicle: saline): 121 % of control
- T/C [1]: 107 % of control
- T/C [2]: 96 % of control

SMILES: Cc1c2oc3c(C)ccc(C(=O)N[C@@H]4C(=O)N[C@H](C(C)C)C(=O)N5CCC[C@H]5C(=O)N(C)CC(=O)N(C)[C@@H](C(C)C)C(=O)O[C@H]4C)c3nc-2c(C(=O)N[C@@H]2C(=O)N[C@H](C(C)C)C(=O)N3CCC[C@H]3C(=O)N(C)CC(=O)N(C)[C@@H](C(C)C)C(=O)O[C@H]2C)c(N)c1=O (I: [aThr][dV]P[Sar][NMeV] / II: [aThr][dV]P[Sar][NMeV]; ester I:1-I:C, II:1-II:C; linker I:N-II:N via Actinocin(9to1))
- T/C (dose: 0.02 mg/kg/injection, vehicle: other): 93 % of control
- T/C (dose: 0.03 mg/kg/injection, vehicle: other): 104 % of control
- T/C (dose: 0.03 mg/kg/injection, vehicle: saline): 97 % of control
- T/C (dose: 0.06 mg/kg/injection, vehicle: other): 103 % of control
- T/C (dose: 0.06 mg/kg/injection, vehicle: saline): 100 % of control

SMILES: O=c1[nH]c(=O)n(C2CC(O)C(CO)O2)cc1I (stereo not drawn)
- T/C [1]: 103 % of control and 107 % of control
- T/C [2]: 103 % of control and 110 % of control
- T/C (dose: 500.0 mg/kg/injection, vehicle: saline): 107 % of control and 114 % of control and 121 % of control
- T/C (dose: 1000.0 mg/kg/injection, vehicle: saline): 110 % of control

SMILES: COS(C)(=O)=O
- T/C [3]: 88 % of control and 100 % of control
- T/C (dose: 25.0 mg/kg/injection, vehicle: saline): 88 % of control
- T/C [4]: 92 % of control

SMILES: CCc1c(CC(=O)O)c2cc(C)ccc2n1Cc1ccc(Cl)cc1
- T/C (dose: 3.13 mg/kg/injection, vehicle: saline): 103 % of control
- T/C (dose: 6.25 mg/kg/injection, vehicle: saline): 107 % of control
- T/C [3]: 103 % of control

SMILES: [N-]=[N+]=CC(=O)NCC(=O)NN
- T/C [4]: 108 % of control
- T/C [5]: 100 % of control
- T/C [6]: 95 % of control
- T/C (dose: 400.0 mg/kg/injection, vehicle: saline): 91 % of control

SMILES: O=c1cnn(C2OC(CO)C(O)C2O)c(=O)[nH]1 (stereo not drawn)
- T/C [4]: 103 % of control and 117 % of control
- T/C [5]: 96 % of control and 113 % of control
- T/C [6]: 91 % of control and 108 % of control

SMILES: O=c1[nH]c(=O)n(C2CC(O)C(CO)O2)cc1F (stereo not drawn)
- T/C [7]: 107 % of control and 111 % of control
- T/C [8]: 111 % of control
- T/C [9]: 153 % of control
- T/C (dose: 37.5 mg/kg/injection, vehicle: saline): 169 % of control

SMILES: N=C(N)N
- T/C [5]: 100 % of control
- T/C (dose: 150.0 mg/kg/injection, vehicle: saline): 100 % of control
- T/C (dose: 215.0 mg/kg/injection, vehicle: saline): 100 % of control

SMILES: O[C@H](CN1CC1)[C@@H](O)CN1CC1
- T/C (dose: 0.13 mg/kg/injection, vehicle: saline): 88 % of control
- T/C (dose: 0.25 mg/kg/injection, vehicle: saline): 96 % of control

SMILES: COc1cc2c(c(OC)c1OC)-c1ccc(OC)c(=O)cc1[C@@H](NC(C)=O)CC2
- T/C (dose: 0.01 mg/kg/injection, vehicle: saline): 107 % of control
- T/C (dose: 0.02 mg/kg/injection, vehicle: saline): 110 % of control
- T/C (dose: 0.04 mg/kg/injection, vehicle: saline): 114 % of control
- T/C (dose: 0.08 mg/kg/injection, vehicle: saline): 121 % of control

SMILES: COc1ccc2[nH]c3c(C)c4ccncc4c(C)c3c2c1
- T/C [7]: 100 % of control
- T/C [8]: 93 % of control
- T/C [10]: 103 % of control
- T/C [9]: 117 % of control

SMILES: COc1cc2c3c(c4ccc(OC)c(OC)c4c2cc1OC)CN1CCC[C@@H]1C3
- T/C [7]: 88 % of control
- T/C [10]: 92 % of control and 107 % of control
- T/C (dose: 15.0 mg/kg/injection, vehicle: saline): 96 % of control and 121 % of control
